The text below walks through data of patent US20090156657A1, “ANTI-INFLAMMATORY COMPOSITION” (Ajinomoto Co., Inc., priority 2006, published 2009).

For test [1], the system named is IBD model mice (IL-10 deficient cell-transplanted SCID mice). The conditions noted are these: Ikenoue et al. 2005; cited from earlier work.
The test system of a further test is U-937 cells / HAEC. In words: Migration capability of monocyte (U-937), Transwell system with HAEC. It counts as cell-based, human. The settings on record: HAEC pre-incubated 5 or 10 μM 24 h, 25 mM glucose 4 h; FIG. 7. The method, then:
The migration capability of monocyte was measured using the Transwell system (pore size 3 μm; BD Biosciences). HAEC cultured on a transwell placed in a 24 well microplate was pre-incubated with 5 or 10 μM serotonin derivative for 24 hours, and stimulated with 25 mM glucose for 4 hours. 200 μL of U-937 cell suspension (10^6 cells/mL) was added to the transwell and the cells were incubated as-is at 37° C. for 2 hours. The number of cells migrated to the lower chamber of the transwell through the membrane was counted under a microscope (20 fields). The experiment was repeated three times, and the results are shown as an average value thereof. An experiment using fluorescence-labeled U-937 cells was also performed. BCECF-AM-labeled U-937 cells were plated in the upper chamber of the transwell and incubated at 37° C. for 2 hours. The cells migrated to the lower chamber through the membrane were collected in 1 mL of PBS buffer and treated with 1% Triton X for 2 hours. The fluorescence derived from the migrated cells was quantified (Ex. 503 nm, Em. 525 nm) using a fluorescence plate reader (Bio-Rad, Fluoromark).

Test [2] relates to U-937 monocyte cells / HAEC. In words: Monocyte (U-937) adhesion to HAEC cells. Format: cell-based, human. The conditions noted are these: HAEC pre-incubated 5 or 10 μM 24 h, 25 mM glucose 4 h; FIG. 5. The method, then:
HAEC cells proliferated to confluence in a 24 well microplate were pre-incubated with CS and FS (5 or 10 μM each) for 24 hours and stimulated with 25 mM glucose for 4 hours. The cell layer was washed with Hanks solution, and then a suspension (1×10^6/mL, 200 μL) of U-937 monocyte cells (purchased from ATCC) was added, and the mixture was incubated at 37° C. for 30 minutes. After washing again, the cells were fixed with 1% para-formaldehyde and the number of U-937 cells attached onto HAEC was counted under a microscope (20 fields). The experiment was performed 3 times and the results are shown as an average value thereof. An experiment using fluorescence-labeled U-937 cells was also performed. To be specific, U-937 cells were incubated (37° C., 1 hour) in the presence of 10 μM 2′,7′-bis(2-carboxyethyl)-5(6)-carboxyfluorescein acetoxymethylester (BCECF-AM, Molecular Probes) and washed by centrifugation. Fluorescence-labeled U-937 cells (1×10^6/mL) were added to HAEC cells, and the mixture was incubated at 37° C. for 1 hour. The floating U-937 cells were removed, the plate was washed with PBS buffer and treated with 1% Triton X for 2 hours. The fluorescence amount of the attached cells was quantified (Ex. 503 nm, Em. 525 nm) using a fluorescence plate reader (Bio-Rad, Fluoromark).

Another test deals with VCAM-1. In words: VCAM-1 protein expression on HAEC cell membrane (immunostaining). It counts as cell-based, human. The settings on record: 0.1-10 μM 24 h, 25 mM glucose 4 h, FIG. 4A. How it is done: (§1) HAEC cells proliferated to confluence in a 96 well microplate were pre-incubated with 0.1-10 μM serotonin derivative for 24 hours, and stimulated with 25 mM glucose for 4 hours. The cell layer was washed with Hanks solution, and then anti-VCAM-1 monoclonal antibody (Becton Dickinson) was added and the cells were incubated at 37° C. for 1 hour. After washing, the cells were incubated with secondary antibody (peroxidase-labeled anti-mouse IgG goat F(ab′)2 fragment; Cappel) for 1 hour. A color development substrate (o-phenylenediamine dihydrochloride) was added and, about 30 minutes later (room temperature), the absorbance (492 nm) of each well was quantified with a microplate reader. The MCP-1 concentration of the medium was quantified with Human MCP-1 Immunoassay Kit (BioSource International).

For the next test, the system named is MCP-1 mRNA. In words: MCP-1 mRNA expression in HAEC by real-time PCR. Format: cell-based, human. The settings on record: 10 μM 24 h, 25 mM glucose 3 h, GAPDH internal standard, FIG. 3B. The method, then: (§2) HAEC cells pre-treated with 10 μM of CS or FS for 24 hours were stimulated with 25 mM glucose for 3 hours, and total RNA was extracted with Isogenkit (NIPPON GENE CO., LTD.). From 1 μg of RNA, cDNA was synthesized using 100 U/mL of reverse transcriptase (TAKARA BIO INC.) and 0.1 μM of oligo (dT)-adapter (TAKARA BIO INC.) (total volume of reaction mixture; 50 μL) (42° C., 40 minutes). Real-time PCR was performed using 7300 Real Time PCR system (Applied Biosystems Japan Ltd.) and the PCR product was detected by SYBER Green I.
(§3) PCR reaction composition (RT-PCRkit, TAKARA BIO INC.): 12.5 μL Premix Ex Taq, 2.5 μL SYBER Green I, synthesis primer, ROX reference dye, cDNA (corresponding to 20 ng of total RNA), final reaction volume; 25 μL
(§4) Primers having the following sequences were used.
(§5) PCR was conducted under the following conditions.
(§6) thermal denaturation: at 95° C. for 15 seconds, extension reaction: 40 cycles (3 seconds at 95° C., 31 seconds at 60° C.)
(§7) Expression amounts of VCAM-1 and MCP-1 mRNA were calculated using GAPDH as the internal standard.

The subject of the next test is VCAM-1 mRNA. In words: VCAM-1 mRNA expression in HAEC by real-time PCR. Format: cell-based, human. The settings on record: 10 μM 24 h, 25 mM glucose 3 h, GAPDH internal standard, FIG. 3A. How it is done: as §2, §3, §4, §5, §6, §7
The subject of the next test is MCP-1. Briefly: MCP-1 secretion into medium of HAEC (immunoassay). It counts as cell-based, human. The conditions noted are these: 0.1-10 μM 24 h, 25 mM glucose 4 h, FIG. 4B. How it is done:
as §1

Test [3] deals with TNF-α, IL-1α, IL-1β and IL-6 production. The settings on record: human peripheral blood monocyte stimulated by LPS; cited from earlier work.
The subject of the next test is NF-κB (p65). Briefly: Activation of NF-κB (nuclear translocation of p65) in HAEC stimulated with high glucose. The settings on record: pre-treatment 5 and 10 μM 24 h, 25 mM glucose 2 h, FIG. 1. It counts as cell-based, human. The method, then:
In the present invention, the term “suppression of NF-κB activation” means suppression of the translocation of NF-κB into the nucleus. The suppression of the translocation of NF-κB into the nucleus can be confirmed by the method described in Example 1. To be specific, a test substance is added to a culture medium of human aortic endothelial cells, the cells are incubated for a predetermined time, the nucleus is extracted from the aforementioned cells stimulated with glucose, and activated NF-κB (p65) translocated into the nucleus is detected. Using the cells before glucose stimulation, wherein NF-κB is not activated, as a negative control and the cells stimulated with glucose and free of addition of a test substance as a positive control, when the detection level of the aforementioned p65 is closer to the negative control than to the positive control, NF-κB activation is evaluated to have been suppressed.
Human aortic endothelial cells (HAEC) were purchased from Clonetics Corp, and the cells cultured for 3-4 passages (37° C., under 5% carbon dioxide gas atmosphere) were used for the experiment. […] Nucleus was extracted from the cells using Nuclear Extract Kit (Active Motif), and then the activated NF-κB (p65) translocated into the nucleus was detected by TransAM NF-κB p65 Kit (Active Motif).

Where only a bound is given, the exact number is not on record here.

As for `C[C@]12C=CC(=O)C=C1CC[C@@H]1[C@@H]2[C@@H](O)C[C@@]2(C)[C@H]1CC[C@]2(O)C(=O)CO` [prednisolone], the “condition (chronic inflammation in the intestine) of the IBD model” value in [1] is “can be improved”.
With `O=C(/C=C/c1ccc(O)cc1)NCCc1c[nH]c2ccc(O)cc12` [CS, N-(p-coumaroyl)serotonin], the “number of U-937 cells migrated into subendothelium space (cell count)” value in the test on U-937 cells / HAEC is recorded as “significantly decreased”. In addition, the “number of U-937 cells attached onto HAEC (cell count)” value in [2] is given as “decreased the number of attached cells in a serotonin derivative dose-dependent manner”. The “VCAM-1 expression on the cell membrane” value in the test with VCAM-1 is recorded as “suppressed the induction of their expressions in a dose-dependent manner”. Further, the “expression amount of MCP-1 mRNA” value with MCP-1 mRNA is listed as “significantly suppressed the increase”. For the same molecule, the “expression amount of VCAM-1 mRNA” value in the test on VCAM-1 mRNA is listed as “significantly suppressed the increase”. Further, the “MCP-1 secretion into the medium” value with MCP-1 was “suppressed the induction of their expressions in a dose-dependent manner”. Further, the “concentration inhibiting production of TNF-α, IL-1α, IL-1β and IL-6 at a transcription level” value in test [3] is no less than 50 µM. Besides, the “nuclear translocation of p65 (activation of NF-κB)” value in the test with NF-κB (p65) is recorded as “significantly suppressed”.
